{"source": "patent US6083964A", "about": "“Optical resolution of racemic aminoalkylpyridine anticonvulsants and (+) aminoalkylpyridine enantiomers as highly potent orally effective anticonvulsant drugs and excitatory amino acid antagonists” (K and K Biosciences, Inc., priority 1999, dated 2000)", "key": {"hippocampal kindled rats": {"tested_on": "hippocampal kindled rats", "assay": "Hippocampal kindled rat model, i.p.", "assay_type": "in vivo", "parameters": "key to Seizure Score ± S.E.M.: Racine seizure class scale; class 5 = rearing and falling", "excerpt": "\"Kindling\" refers to the process whereby repeated administration of an initially subconvulsive electrical stimulus results in progressive intensification of epileptic discharge culminating in a generalized seizure. Kindling can be induced by electrical stimulation of many sites in the brain, especially in \"limbic\" areas, which include amygdala, hippocampus, and entorhinal cortex [Racine, R., Neurosurgery, 3, 234-252 (1978)]. Kindling is reliably produced by a one second train of 60 Hz square wave stimuli of one millisecond duration at current levels which initially produce only a slight afterdischarge (AD), but no behavioral response. Repeated stimulation, typically once daily, results in a progressive increase in AD amplitude, duration and complexity with subsequent spread to other brain areas culminating in a fully generalized motor seizure. [Racine, R. J. and Zaide, J., In \"Mechanisms, the Continuing Evolution of the Limbic System Concept\" (K. E. Livingston and O. Hornykiewicz, eds.), Plenum Press, pp. 457-493, 1978.\nThe development of kindling in the rat has been characterized by five (1 to 5) behavioral and electrographic \"classes\". The behavior in classes 1 (facial clonus) and 2 (head nodding) mimics that found in human complex partial seizures; the behavior in other classes would be consistent with limbic seizures evolving to generalized motor seizures. An animal is considered to be fully kindled once the enhanced sensitivity has developed, as evidenced by a class 5 seizure (rearing and falling).\nThe (+) AAP enantiomer, compound 1 in Table 1, was tested in the hippocampal kindled rat, by the i.p. route. […]\nThe (-) AAP enantiomer, compound 2 in Table 1, was also tested in the hippocampal kindled rat, by the i.p. route."}, "[1]": {"tested_on": "maximal electroshock seizure (MES) in mice", "assay": "Maximal electroshock seizure (MES) test, mice, i.p.", "assay_type": "in vivo, mouse (male Carworth Farms #1)", "conditions": "listed as (1) (-) Enantiomer", "excerpt": "The (+) AAP enantiomers obtained by optical resolution of racemic AAPs and the resulting highly orally effective anticonvulsant compositions of this invention are useful in the treatment of convulsive disorders. […] A series of (+) AAP enantiomers and (-) AAP enantiomers of this invention has been evaluated for anticonvulsant activity by the intraperitoneal (i.p.) and by the oral (p.o.) route using two standard seizure models in the mouse and in the rat, the maximal electroshock seizure (MES) test and the subcutaneous pentylenetetrazol (Metrazole) seizure threshold (scMet) test. […] The following Table 2 presents the results of these anticonvulsant tests with respect to several (+) and (-) AAP enantiomeric compounds derived from optical resolution of racemic AAPs of the present invention. This Table 2 identifies the specific compounds tested by their chemical name and provides the test model, the route of administration, the animal species used, and the anticonvulsant activity and toxicity in terms of ED50 and TD50 values, (the median effective and toxic dose respectively), when intraperitoneally administered to mice, and when orally administered to rats. In mice, i.p.: All compounds are emulsified in 0.5% methylcellulose. The solvent has been tested for anticonvulsant and toxic effects and found to introduce no significant bias into the testing of anticonvulsant activity. The compounds are administered intraperitoneally in a volume of 0.01 ml/gm to male Carworth Farms #1 mice weighing about 20 gm. All compounds are tested at least at three dose levels (30, 100 and 300 mg/kg) at 30 minutes and 4 hours after their administration. The Maximal Electroshock Seizure Test (MES): Maximal electroshock seizures are elicited with a 60 Hz alternating current of 50 mA intensity in mice and about 150 mA intensity in rats (5-7 times that necessary to elicit minimal electroshock seizures), delivered for 0.2 sec via corneal electrodes. A drop of 0.9% saline is instilled in the eye prior to application of the electrodes in order to […]. Abolition of the hind limb tonic extension component of the seizure is defined as protection and results are expressed as number of animals protected/number of animals tested. The Subcutaneous Pentylenetetrazol (Metrazole) Seizure Threshold Test (scMet): A 0.5% solution of 85 mg/kg of pentylenetetrazol is administered subcutaneously in the posterior midline 30 minutes or 4 hours after drug administration to the animal. […] Anticonvulsant Quantification in Mice i.p.: The ED50 values are determined in the MES, scMet and rotorod ataxia test. To determine the ED50 values, five logarithmically spaced doses of the test compound are administered to animals (male Carworth Farms #1 mice) in groups of eight, to cover 0-100% protection, and the dose required to protect 50% of the animals (ED50) together with its 95% confidence limits, is determined graphically."}, "[2]": {"tested_on": "pentylenetetrazol (Metrazole) seizure threshold in mice", "assay": "Timed intravenous Metrazol (PTZ) seizure threshold test in mice, i.p.", "assay_type": "in vivo, mouse", "conditions": "mice", "excerpt": "A compound that is active in the MES test and prevents seizure spread, can lower seizure threshold at the same time. Such a compound would have proconvulsant activity while at the same time prevent generalized tonic seizures. […] The timed intravenous pentylenetetrazol (Metrazol) seizure threshold test in mice identifies those MES compounds with proconvulsant potential.\nMice were given the (+) and (-) enantiomers, compounds 1 and 2 in Table 1, intraperitoneally at the ED50 and TD50. At the time of maximal MES activity, an intravenous infusion of 0.5% heparinized solution of pentylenetetrazol (PT2) (0.34 ml/min) was started. The time to the appearance of the first myoclonic jerk (twitch) and the subsequent sustained clonic seizure (clonus) were the measured endpoints. Results were obtained for groups of ten treated and ten saline control mice and converted to the dose in mg/kg of PTZ necessary to produce the two endpoints.\nExperiments were performed using three doses of 0, 36 and 149 mg/kg on each of 10 animals per dosage group. The time to \"twitch\" and the time to \"clonus\", the two components of the seizure elicited by the infusion of metrazol, were observed."}}}
{"smiles": "CC(Nc1ccc(Cl)cc1)c1ccncc1", "note": "(single isomer, unassigned; (-)) [Compound 2, (-) N-(4-Chlorophenyl)-1-(4-pyridyl)ethylamine]", "values": [{"measurement": "Afterdischarge Duration (sec) ± S.E.M.", "setting": "hippocampal kindled rats; 100 mg/kg i.p., 15 min", "result": "69.88 ± 8.29", "unit": "s"}, {"measurement": "Seizure Score ± S.E.M.", "setting": "hippocampal kindled rats; 100 mg/kg i.p., 15 min, Table 3 value * significantly different from control", "result": "4.63 ± 0.38"}, {"measurement": "Afterdischarge Duration (sec) ± S.E.M.", "setting": "hippocampal kindled rats; 100 mg/kg i.p., 45 min", "result": "74.88 ± 10.31", "unit": "s"}, {"measurement": "Seizure Score ± S.E.M.", "setting": "hippocampal kindled rats; 100 mg/kg i.p., 45 min, Table 3 value * significantly different from control", "result": "4.25 ± 0.49"}, {"measurement": "Afterdischarge Duration (sec) ± S.E.M.", "setting": "hippocampal kindled rats; 100 mg/kg i.p., 75 min", "result": "82.50 ± 6.11", "unit": "s"}, {"measurement": "Seizure Score ± S.E.M.", "setting": "hippocampal kindled rats; 100 mg/kg i.p., 75 min, Table 3 value * significantly different from control", "result": "4.75 ± 0.16"}, {"measurement": "Afterdischarge Duration (sec) ± S.E.M.", "setting": "hippocampal kindled rats; 100 mg/kg i.p., 105 min", "result": "75.75 ± 11.71", "unit": "s"}, {"measurement": "Seizure Score ± S.E.M.", "setting": "hippocampal kindled rats; 100 mg/kg i.p., 105 min, Table 3 value * significantly different from control", "result": "4.50 ± 0.50"}, {"measurement": "Afterdischarge Duration (sec) ± S.E.M.", "setting": "hippocampal kindled rats; 100 mg/kg i.p., 135 min", "result": "82.63 ± 5.04", "unit": "s"}, {"measurement": "Seizure Score ± S.E.M.", "setting": "hippocampal kindled rats; 100 mg/kg i.p., 135 min", "result": "4.75 ± 0.16"}, {"measurement": "Afterdischarge Duration (sec) ± S.E.M.", "setting": "hippocampal kindled rats; 100 mg/kg i.p., 165 min", "result": "79.00 ± 12.92", "unit": "s"}, {"measurement": "Seizure Score ± S.E.M.", "setting": "hippocampal kindled rats; 100 mg/kg i.p., 165 min", "result": "4.13 ± 0.61"}, {"measurement": "# Protected/# Tested", "setting": "hippocampal kindled rats; 100 mg/kg i.p., 195 min", "result": "2/8"}, {"measurement": "Afterdischarge Duration (sec) ± S.E.M.", "setting": "hippocampal kindled rats; 100 mg/kg i.p., 195 min", "result": "69.25 ± 11.15", "unit": "s"}, {"measurement": "Seizure Score ± S.E.M.", "setting": "hippocampal kindled rats; 100 mg/kg i.p., 195 min", "result": "3.88 ± 0.67"}, {"measurement": "Afterdischarge Duration (sec) ± S.E.M.", "setting": "hippocampal kindled rats; 100 mg/kg i.p., 225 min", "result": "83.75 ± 5.17", "unit": "s"}, {"measurement": "Seizure Score ± S.E.M.", "setting": "hippocampal kindled rats; 100 mg/kg i.p., 225 min", "result": "4.25 ± 0.16"}, {"measurement": "Afterdischarge Duration (sec) ± S.E.M.", "setting": "hippocampal kindled rats; 100 mg/kg i.p., 255 min", "result": "73.13 ± 11.97", "unit": "s"}, {"measurement": "Seizure Score ± S.E.M.", "setting": "hippocampal kindled rats; 100 mg/kg i.p., 255 min", "result": "4.00 ± 0.50"}, {"measurement": "Afterdischarge Duration (sec) ± S.E.M.", "setting": "hippocampal kindled rats; 100 mg/kg i.p., 285 min", "result": "84.50 ± 6.76", "unit": "s"}, {"measurement": "Seizure Score ± S.E.M.", "setting": "hippocampal kindled rats; 100 mg/kg i.p., 285 min", "result": "4.83 ± 0.17"}, {"measurement": "activity in hippocampal kindled rat (in words)", "setting": "hippocampal kindled rats; i.p.", "result": "only moderate activity"}, {"measurement": "ED50", "setting": "[1]; MES test", "result": 60.3, "unit": "mg/kg"}, {"measurement": "P.I. (protective index, TD50/ED50)", "setting": "[1]; MES", "result": 3.6}, {"measurement": "amount of PTZ required to produce the twitch and clonus and time to twitch and time to clonus (in words)", "setting": "[2]", "result": "only in modest amounts"}]}
